From patent US12421254B2, “KRAS modulators and uses thereof” (Quanta Therapeutics, Inc., priority 2023, dated 2025)
pIC50: −log10 of the molar value. Where two headings read alike, the source gives them in different places.

Columns and labels:
[1] = target: GST-tagged KRAS-G12D (2-169) (Homo sapiens, UniProt P01116, G12D); experiment: Nucleotide exchange assay (NEA), SOS-mediated, HTRF, KRAS G12D; type: biochemical; conditions: IC50 extracted at 30 min, 20 nM SOScat; for IC50: Table 2, read-out: NEA-G12D (uM) IC50; for pIC50: Table 4, read-out: NEA G12D IC50
GST-tagged KRAS-G12D (2-169), sequence (P01116 2-169 isoform P01116-2 G12D): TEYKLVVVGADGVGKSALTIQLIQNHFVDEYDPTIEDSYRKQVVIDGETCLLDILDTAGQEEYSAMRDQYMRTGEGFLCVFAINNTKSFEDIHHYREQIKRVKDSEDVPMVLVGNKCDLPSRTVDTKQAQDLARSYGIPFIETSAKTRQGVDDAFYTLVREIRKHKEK
Procedure, shortened: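 Compound preincubated 1 h at RT with 0.25 nM GST-KRAS-G12D (2-169) and anti-GST Tb donor, then 20 nM SOS1cat (564-1049) and 150 nM GTP-DY-647P1 added; pH 7.3 HEPES buffer with MgCl2 and DTT. HTRF monitored at RT; % inhibition versus DMSO and no-SOS blank, 4-parameter IC50 taken at 30 min.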

[2] = target: T1, KRAS G12V/RAF1 (Homo sapiens, UniProt P01116, G12V); experiment: Protein-protein interaction (PPI) HTRF assay KRAS G12V/RAF1; type: binding; conditions: Table 3
T1 construct: KRAS (1-169) proteins were expressed in BL21 (DE3)-CodonPlus E. coli; His6-MBP (N, cleaved yes)
T1 sequence (P01116 with tags, fused parts or gaps isoform P01116-2 G12V): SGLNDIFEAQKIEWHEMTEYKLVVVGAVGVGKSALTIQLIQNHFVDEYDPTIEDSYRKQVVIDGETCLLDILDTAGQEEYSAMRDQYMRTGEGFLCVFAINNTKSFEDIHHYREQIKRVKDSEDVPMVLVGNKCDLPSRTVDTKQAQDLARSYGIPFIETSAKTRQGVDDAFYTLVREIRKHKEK
Experimental: (§1) When RAS proteins are in the active GTP-bound conformation, they bind the effector protein RAF1 at the N-terminus Ras-binding domain (RBD, residues 52-131) (Tran, et al., 2021). Homogenous time resolved fluorescence (HTRF) was used to monitor the interaction between wt or mutant KRAS and RAF1 or wt NRAS and RAF1. Compounds were assayed in the presence of KRAS G12D/V and RAF1 versus wt KRAS to assess activity against mutant and w.t. KRAS. Similarly, compounds were then assayed in the presence of w.t. NRAS and RAF1 to assess RAS isoform selectivity. In all assay formats, His-tagged RAF1 protein was incubated with the HTRF donor, anti-6His Tb Cryptate gold (Cisbio 61DB10RDF), and biotinylated RAS proteins were incubated with the HTRF acceptor, streptavidin-d2 (CisBio 610SADLA). The intensity of the fluorescence signal emitted is proportional to binding between the two proteins. The donor solution was prepared by mixing 16 nM His-tagged RAF1 in protein dilution buffer with 1:100 anti-6His Tb cryptate in PPI-Terbium detection buffer. 16 nM biotinylated RAS protein was diluted into protein dilution buffer (50 mM Tris-HCl pH 7.5, 150 mM NaCl, 0.1 mM MgCl2, 1 mM TCEP, 0.005% Tween20) and mixed with 1:2000 Streptavidin-d2 diluted in PPI-Terbium detection buffer (CisBio 61DB10RDF). 50× compound in DMSO was mixed with 16 nM KRAS-acceptor solution and incubated for 30 minutes at room temperature. After compound pre-incubation with KRAS, the RAF1 donor solution was added to the KRAS-acceptor solution and incubated for 1 hour at room temperature. The fluorescence signal emitted was monitored at 665 nm and 615 nm using an Envision multimode plate reader. The HTRF ratio (665/615) was calculated and normalized to 0% inhibition in the absence of compound and 100% inhibition in the presence of untagged RAF1 protein. PPI KRAS G12D/RAF1, KRAS G12V/RAF1, w.t. KRAS/RAF1 and NRAS/RAF1 IC50 (uM) values of selected compounds are depicted in Table 3 and Table 4 with compounds having a value <0.1 uM as ++++; ≥0.1 uM to 1 uM as +++; ≥1 uM to 10 uM as ++; ≥10 uM to 100 uM as +; and ≥100 uM as NA.

[3] = target: T2, KRAS G12D/RAF1 (Homo sapiens, UniProt P01116, G12D); experiment: Protein-protein interaction (PPI) HTRF assay KRAS G12D/RAF1; type: binding; conditions: Table 2
T2 construct: KRAS (1-169) proteins were expressed in BL21 (DE3)-CodonPlus E. coli; His6-MBP (N, cleaved yes)
T2 sequence (P01116 with tags, fused parts or gaps isoform P01116-2 G12D): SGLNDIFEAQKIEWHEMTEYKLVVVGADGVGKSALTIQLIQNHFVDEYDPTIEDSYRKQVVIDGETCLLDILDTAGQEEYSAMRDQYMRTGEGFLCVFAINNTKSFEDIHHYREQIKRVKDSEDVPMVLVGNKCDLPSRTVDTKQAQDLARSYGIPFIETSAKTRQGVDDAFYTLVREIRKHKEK
Experimental: as §1

[4] = target: GST-tagged KRAS-G12V (2-169) (Homo sapiens, UniProt P01116, G12V); experiment: Nucleotide exchange assay (NEA), SOS-mediated, HTRF, KRAS G12V; type: biochemical; conditions: Table 4; IC50 extracted at 90 min; 80 nM SOS
GST-tagged KRAS-G12V (2-169), sequence (P01116 2-169 isoform P01116-2 G12V): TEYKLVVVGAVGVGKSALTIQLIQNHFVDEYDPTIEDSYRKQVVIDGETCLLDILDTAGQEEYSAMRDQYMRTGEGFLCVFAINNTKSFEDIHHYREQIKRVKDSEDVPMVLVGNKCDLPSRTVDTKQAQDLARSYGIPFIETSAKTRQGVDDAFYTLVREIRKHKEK
Procedure, shortened: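 GST-KRAS-G12V (2-169), 0.25 nM, pre-incubated 1 h at RT with compound, then SOS1cat (564-1049) 80 nM and GTP-DY-647P1 150 nM added in HEPES pH 7.3 buffer with MgCl2 and DTT. HTRF via anti-GST Tb cryptate read over 90 min; IC50 from 4-parameter fit at 90 min, blanked to no-SOS reactions.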

[5] = tested on: phospho-ERK in AGS cells; experiment: pERK In Cell Western (ICW) assay (Method B), AGS; type: cell-based; conditions: Homo sapiens, Table 2, 3 hours
Experimental: pERK ICW is a high throughput screening assay to evaluate the cellular potency of mutant KRAS small molecule inhibitors. KRAS mutant cell lines AGS, GP2D (KRAS-G12D) as well as SW620 (KRAS-G12V) were purchased from ATCC and maintained respectively in RPMI/DMEM/RPMI medium supplemented with 10% fetal bovine serum.
Cells grown in exponential phase were trypsinized, resuspended in fresh media, and viable cells were counted using a cell counter with Trypan Blue (BioRad TC20). Cells were seeded into 384-well plate (Greiner 781091) at density of 5,000 cells/well for AGS and 10,000 cells/well for GP2D/SW620 and allowed to grow overnight in a 37° C. CO2 incubator. The next day, compounds were dispensed into wells with a ½ log, 9-point serial dilution using a Tecan D300e dispenser and incubated for 3 hours in a 37° C. CO2 incubator. Cells were then fixed with paraformaldehyde (Electron Microscopy Sciences, 15710, 4% final concentration) for 30 min, permeabilized with wash buffer (1×PBS+0.1% Triton X-100) for 30 min and blocked with Odyssey blocking buffer (Li—COR 927-70001) for 1 hour, all at room temperature (RT). Phospho-ERK antibody (CST 4370L) was diluted 1:500 in Odyssey T20 (PBS) antibody diluent (Li—COR 927-75001) and incubated with cells overnight at 4° C. The next day, plates were washed 5× with wash buffer, incubated with IRDye 800 CW, Goat anti-Rabbit secondary antibody (Li—COR 926-32211, 1:800) and DRAQ5 (CST 4084L, 1:5,000) diluted in Odyssey T20 (PBS) antibody diluent for 1 hour, washed 5×, and imaged on an Odyssey CLx imaging system.
For data analysis, signal intensities from 800 (phosphor-ERK) and 700 (DRAQ5) channels were extracted, and phospho-ERK signals were normalized to DRAQ5 signals for each well and percent of blank control values were computed. Data were then imported into Graphpad Prism to compute half-maximal inhibitory concentrations (IC50) using a 4-parameter variable slope model. Z-factor for each plate was computed from signals derived from wells treated with either DMSO or 5 μM of control compound. AGS pERK ICW (Method B) IC50 (uM) values of selected compounds are depicted in Table 2 with compounds having a value ≥0.001 uM to 0.01 uM as ++++; ≥0.01 uM to 0.1 uM as +++; ≥0.1 uM to 1 uM as ++; ≥1 uM to 10 uM as + and ≥10 uM as NA.

[6] = tested on: phospho-ERK in GP2D (KRAS-G12D) cells; experiment: pERK In Cell Western (ICW) assay (Method B), GP2D; type: cell-based; conditions: GP2d, 3 h, Table 4
Procedure, shortened: (§2)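 SW620 (KRAS-G12V), GP2D (KRAS-G12D) and AGS cells, seeded overnight, were exposed to compounds (½-log, 9-point) for 3 h at 37°C, then fixed and stained for phospho-ERK. Infrared imaging; pERK normalized to DRAQ5 DNA stain, expressed as percent of blank control, IC50 by 4-parameter fit.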

[7] = tested on: phospho-ERK in SW620 (KRAS-G12V) cells; experiment: pERK In Cell Western (ICW) assay (Method B), SW620; type: cell-based; conditions: Homo sapiens, SW-620, 3 h, Table 4
Procedure, shortened: as §2

Compound	IC50 [1]	pIC50 [1]	IC50 [2]	IC50 [3]	pIC50 [4]	IC50 [5]	pIC50 [6]	pIC50 [7]
N#Cc1c(N)sc2c1C1(CC2)CCN(c2nc(OC[C@@]34CCCN3C[C@H](F)C4)nc(N3CCCC(C#N)CC3)n2)C1 (stereo partly drawn) [Compound 12, 2-amino-1′-[4-(4-cyanoazepan-1-yl)-6-[[(2R,8S)-2-fluoro-1,2,3,5,6,7-hexahydropyrrolizin-8-yl]methoxy]-1,3,5-triazin-2-yl]spiro[5,6-dihydrocyclopenta[b]thiophene-4,3′-pyrrolidine]-3-carbonitrile]	0.1 to 1 µM	6.00 to 7.00	10 to 100 µM	10 to 100 µM	6.00 to 7.00			
N#Cc1c(N)sc2c1C1(CC2)CCN(c2nc(OCC3(CN4CCOCC4)CC3)nc(N3C[C@H]4CC[C@@H](C3)N4)n2)C1 (stereo partly drawn) [Compound 9, 2-amino-1′-[4-[(1R,5S)-3,8-diazabicyclo[3.2.1]octan-3-yl]-6-[[1-(morpholinomethyl)cyclopropyl]methoxy]-1,3,5-triazin-2-yl]spiro[5,6-dihydrocyclopenta[b]thiophene-4,3′-pyrrolidine]-3-carbonitrile]	< 0.01 µM	> 8.00	10 to 100 µM	1 to 10 µM	4.70 to 6.00	0.1 to 1 µM	7.00 to 8.00	
CC(C#N)COc1nc(OC[C@@]23CCCN2C[C@H](F)C3)nc(N2CC3(CCc4sc(N)c(C#N)c43)C2)n1 (stereo partly drawn) [Compound 17, 2-amino-1′-[4-(2-cyanopropoxy)-6-[[(2R,8S)-2-fluoro-1,2,3,5,6,7-hexahydropyrrolizin-8-yl]methoxy]-1,3,5-triazin-2-yl]spiro[5,6-dihydrocyclopenta[b]thiophene-4,3′-azetidine]-3-carbonitrile]	0.1 to 1 µM	6.00 to 7.00	10 to 100 µM	10 to 100 µM	7.00 to 8.00			
C[C@H](c1cccnc1N)N(CC(F)F)c1nc(OC[C@@H]2CCCN2C)nc(N2CC3(C2)SCc2sc(N)c(C#N)c23)n1 [Compound 196, 2′-amino-1-(4-(((R)-1-(2-aminopyridin-3-yl)ethyl)(2,2-difluoroethyl)amino)-6-(((S)-1-methylpyrrolidin-2-yl)methoxy)-1,3,5-triazin-2-yl)-6′H-spiro[azetidine-3,4′-thieno[3,4-b]thiophene]-3′-carbonitrile]		> 8.00			> 8.00		7.00 to 8.00	> 8.00
CC(c1ccc(F)nc1N)N(C)c1nc(OC[C@@]23CCCN2C[C@H](F)C3)nc(N2CC3(CCc4sc(N)c(C#N)c43)C2)n1 (stereo partly drawn) [Compound 162, 2-amino-1′-[4-[1-(2-amino-6-fluoro-3-pyridyl)ethyl-methyl-amino]-6-[[(2R,8S)-2-fluoro-1,2,3,5,6,7-hexahydropyrrolizin-8-yl]methoxy]-1,3,5-triazin-2-yl]spiro[5,6-dihydrocyclopenta[b]thiophene-4,3′-azetidine]-3-carbonitrile]		7.00 to 8.00			> 8.00		6.00 to 7.00	7.00 to 8.00
CCN(c1nc(OC[C@@]23CCCN2C[C@H](F)C3)nc(N2CC3(CCc4sc(N)c(C#N)c43)C2)n1)[C@H](C)c1cccnc1N [Compound 173, 2-amino-1′-[4-[[(1R)-1-(2-amino-3-pyridyl)ethyl]-ethyl-amino]-6-[[(2R,8S)-2-fluoro-1,2,3,5,6,7-hexahydropyrrolizin-8-yl]methoxy]-1,3,5-triazin-2-yl]spiro[5,6-dihydrocyclopenta[b]thiophene-4,3′-azetidine]-3-carbonitrile]		> 8.00			> 8.00		> 8.00	> 8.00
N#Cc1c(N)sc2c1C1(CN(c3nc(OCC4(CN5CCOCC5)CC4)nc(N4C[C@H]5CC[C@@H](C4)N5)n3)C1)SC2 [Compound 167, 1-(4-((1R,5S)-3,8-diazabicyclo[3.2.1]octan-3-yl)-6-((1-(morpholinomethyl)cyclopropyl)methoxy)-1,3,5-triazin-2-yl)-2′-amino-6′H-spiro[azetidine-3,4′-thieno[3,4-b]thiophene]-3′-carbonitrile]		> 8.00			7.00 to 8.00		> 8.00	4.70 to 6.00
C[C@@]1(O)CCCN(c2nc(OCC3(CN4CCOCC4)CC3)nc(N3CC4(C3)c3c(sc(N)c3C#N)CC4(F)F)n2)C1 [Compound 98, 2-amino-5,5-difluoro-1′-[4-[(3R)-3-hydroxy-3-methyl-1-piperidyl]-6-[[1-(morpholinomethyl)cyclopropyl]methoxy]-1,3,5-triazin-2-yl]spiro[6H-cyclopenta[b]thiophene-4,3′-azetidine]-3-carbonitrile]		> 8.00			> 8.00		7.00 to 8.00	6.00 to 7.00
N#Cc1c(N)sc2c1C1(CN(c3nc(OC[C@@]45CCCN4C[C@H](F)C5)nc(N4CC(=O)Nc5ncccc5C4)n3)C1)SC2 [Compound 189, 2-amino-1′-[4-[[(2R,8S)-2-fluoro-1,2,3,5,6,7-hexahydropyrrolizin-8-yl]methoxy]-6-(2-oxo-3,5-dihydro-1H-pyrido[2,3-e][1,4]diazepin-4-yl)-1,3,5-triazin-2-yl]spiro[6H-thieno[3,4-b]thiophene-4,3′-azetidine]-3-carbonitrile]		6.00 to 7.00			7.00 to 8.00		4.70 to 6.00	4.70 to 6.00
